EC50 data for three molecules are collected here from article PMC7108740, “Exploring the molecular structures that confer ligand selectivity for galanin type II and III receptors” (PLoS ONE, 2020).

The target of assay [1] is T1, GALR3 single mutant L^100F (Homo sapiens, UniProt O60755, L100F).
T1 construct: expressed in transfected cells; host or cells: HEK293 cells stably expressing Gqi
T1 sequence (O60755 1-368 L100F): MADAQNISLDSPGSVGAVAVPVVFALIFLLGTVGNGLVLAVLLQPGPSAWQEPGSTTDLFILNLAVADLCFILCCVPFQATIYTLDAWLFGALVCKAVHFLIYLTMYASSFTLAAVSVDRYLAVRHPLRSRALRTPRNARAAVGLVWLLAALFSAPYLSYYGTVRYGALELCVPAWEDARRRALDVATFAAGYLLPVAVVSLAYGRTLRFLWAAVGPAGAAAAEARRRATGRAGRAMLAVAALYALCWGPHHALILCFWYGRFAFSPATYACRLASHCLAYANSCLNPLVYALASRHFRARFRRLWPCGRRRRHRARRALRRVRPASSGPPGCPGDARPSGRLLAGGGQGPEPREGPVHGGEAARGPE
Nature of the assay: SRE-luc luciferase assay, GALR3 L100F. In kind it is cell-based. As to conditions: GALR3 L^100F; SRE-luc in HEK293 Gqi cells, ligand 6 h; mean ± S.E.; SEM. From the text: (§1) For domain swapping between GALR2 and GALR3, individual cDNA fragments of interest were amplified by polymerase chain reaction (PCR) with Pfu polymerase (ELPIS Biotech, Daejeon, Korea) and two specific primers, one corresponding to the 5' or 3' end of the GALR2 or GALR3 cDNA and the other to the region of overlap between the two receptors. The two resulting fragments, one from GALR2 and the other from GALR3, were subjected to a second round of PCR to generate the chimeric cDNAs. To construct single, double-, triple-, pentuple-, hextuple-, and septuple-mutant receptors, amino acids of GALR3 were substituted for the amino acids at the corresponding positions in GALR2 using PCR-based site-directed mutagenesis. All of the chimeric constructs were cloned into the pcDNA3 expression vector at HindⅢ and XbaⅠ sites. The DNA sequences of the chimeras were verified by automatic sequencing. HEK293 cells stably expressing the Gqi construct, which allows induction of Gq-dependent signaling pathways upon activation of a Gi-coupled receptor [14, 30], were maintained in Dulbecco's Modified Eagle's Medium (DMEM) in the presence of 10% fetal bovine serum and 1% penicillin and streptomycin. For all transfections, 200 ng DNA (100 ng receptor and 100 ng SRE-luc) mixed with lipofectamine 2000 was applied to 60–80% confluent cells on a multi-well plate according to the manufacturer's instructions (Invitrogen, Carlsbad, CA). For luciferase assays, HEK293 Gqi cells were seeded on 48-well plates at a density of 2.5 × 10^4 cells/well one day before transfection. […] The luciferase activity in 50 μl cell extract was determined using a luciferase assay system according to the standard protocol for the Synergy 2 Multi-Mode Microplate Reader (BioTek, Winooski, VT, USA). […] The concentrations of agonists that induced half-maximal stimulation (EC50) were calculated using the GraphPad PRISM5 software (GraphPad software, Inc., San Diego, CA). […]

The target in assay [2] is T2, GALR3 double mutant L^100F, Y^103F (Homo sapiens, UniProt O60755, L100F/Y103F).
T2 construct: expressed in transfected cells; host or cells: HEK293 cells stably expressing Gqi
T2 sequence (O60755 1-368 L100F/Y103F): T1 sequence (O60755 1-368 L100F) with Y103F
The assay is described as follows: SRE-luc luciferase assay, GALR3 L100F,Y103F. In kind it is cell-based. As to conditions: GALR3 L^100F, SRE-luc in HEK293 Gqi cells, ligand 6 h, mean ± S.E., SEM.
Text: as §1

Where a chain is given by its changes, count along the chain named. Ends that are not written are not given here.

By EC50 is commonly meant the concentration needed to bring the measured effect to its halfway point. On to NWTPQAALYLKGAQ-NH2 [A^7-SPX], for which the values for the EC50 in assay [1] and in assay [2] were 269 ± 45.3 nM and 155 ± 45.2 nM, respectively.
The corresponding values for NWTPNAMLYLKGAQ-NH2 [N^5-SPX] are 288 ± 84.2 nM and 174 ± 45 nM.
The corresponding values for `CSCC[C@H](NC(=O)[C@H](C)NC(=O)[C@H](CCC(N)=O)NC(=O)[C@@H]1CCCN1C(=O)[C@@H](NC(=O)[C@H](Cc1c[nH]c2ccccc12)NC(=O)[C@@H](N)CC(N)=O)[C@@H](C)O)C(=O)N[C@@H](CC(C)C)C(=O)N[C@@H](Cc1ccc(O)cc1)C(=O)N[C@@H](CC(C)C)C(=O)N[C@@H](CCCCN)C(=O)NCC(=O)N[C@@H](C)C(=O)N[C@@H](CCC(N)=O)C(N)=O` [SPX, reference compound] are 66.1 ± 13.6 nM and 42.7 ± 9.54 nM.
